Activity calls are given as the source filed them. The calls are words filed in the database; no cut-off is given here.

This is an account of results in ChEMBL document CHEMBL4834411, “Hydroazulene Diterpenes from a Dictyota Brown Alga and Their Antioxidant and Neuroprotective Effects Against Cerebral Ischemia-Reperfusion Injury” (2021).

Assay [1] deals with T1, Nuclear factor erythroid 2-related factor 2 (Rattus norvegicus) (UniProt O54968).
T1 sequence (whole entry): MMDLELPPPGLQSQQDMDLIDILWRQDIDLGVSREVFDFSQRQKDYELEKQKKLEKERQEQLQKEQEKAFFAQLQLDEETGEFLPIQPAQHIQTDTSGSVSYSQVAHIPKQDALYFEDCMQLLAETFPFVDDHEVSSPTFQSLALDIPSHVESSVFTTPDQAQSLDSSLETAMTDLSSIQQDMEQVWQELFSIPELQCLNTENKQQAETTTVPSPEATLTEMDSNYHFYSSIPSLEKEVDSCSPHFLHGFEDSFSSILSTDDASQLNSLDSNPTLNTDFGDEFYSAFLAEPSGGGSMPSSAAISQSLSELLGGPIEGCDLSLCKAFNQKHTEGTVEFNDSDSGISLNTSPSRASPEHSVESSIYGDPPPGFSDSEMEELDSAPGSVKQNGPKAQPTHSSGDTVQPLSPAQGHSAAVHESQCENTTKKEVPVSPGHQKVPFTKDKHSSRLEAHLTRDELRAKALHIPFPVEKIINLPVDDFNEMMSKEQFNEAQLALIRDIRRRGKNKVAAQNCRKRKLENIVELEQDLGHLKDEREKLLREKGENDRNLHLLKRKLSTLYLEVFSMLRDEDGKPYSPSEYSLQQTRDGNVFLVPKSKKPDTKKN
Nature of the assay: Activation of Nrf2 in rat PC12 cells assessed as upregulation of HO-1 protein expression after 24 hrs by Western blotting analysis. Format: cell-based. The note with it: PC-12, filed as activator, dose 0.5-2 µM.

Assay [2] has as its system PC-12. The assay can be described thus: Cytoprotective activity against H2O2-induced oxidative damage in rat PC12 cells assessed as increase in colony formation at 0.5 to 1 uM preincubated for 24 hrs followed by H2O2 treatment by crystal violet staining based assay. In kind it is functional, cell-based. Particulars: dose 0.5-1 µM.
Assay [3] deals with T1, Nuclear factor erythroid 2-related factor 2 (Rattus norvegicus). The assay can be described thus: Activation of Nrf2 in rat PC12 cells assessed as upregulation of HO-1 protein expression at 2 uM after 24 hrs by Western blotting analysis. The note with it: PC-12, filed as activator. In kind it is cell-based.
For assay [4], the system named is Rattus norvegicus. Nature of the assay: Neuroprotective activity in Sprague-Dawley rat model of middle cerebral artery occlusion-induced cerebral ischemia-reperfusion injury assessed as decrease in brain infarction size at 80 ug/kg pretreated for 2 hrs followed by MCAO measured after 72 hrs by TTC staining based assay. In kind it is functional, organism-based. The note with it: dose 80.0 µg/kg.

Assay [5] concerns PC-12. The assay can be described thus: Cytoprotective activity against H2O2-induced oxidative damage in rat PC12 cells assessed as increase in cell viability at 0.25 uM preincubated for 24 hrs followed by H2O2 treatment for another 24 hrs by MTT assay. In kind it is functional, cell-based. Particulars: time 48.0 hrs.
Assay [6] deals with T1, Nuclear factor erythroid 2-related factor 2 (Rattus norvegicus). Nature of the assay: Activation of Nrf2 in rat PC12 cells assessed as nuclear translocation of Nrf2 at 2 uM after 6 hrs by DAPI staining based fluorescence microscopy analysis. In kind it is cell-based. The note with it: PC-12, filed as activator.
Assay [7] concerns Rattus norvegicus. The assay can be described thus: Neuroprotective activity in Sprague-Dawley rat model of middle cerebral artery occlusion-induced cerebral ischemia-reperfusion injury assessed as reduction in neurological deficit score at 80 ug/kg pretreated for 2 hrs followed by MCAO measured after 72 hrs by TTC staining based assay. In kind it is functional, organism-based. The note with it: dose 80.0 µg/kg, time 74.0 hrs.

Assay [8] has as its system PC-12. The assay can be described thus: Cytoprotective activity against H2O2-induced oxidative damage in Nrf2 knockdown rat PC12 cells assessed as increase in cell viability at 2 uM preincubated for 24 hrs followed by H2O2 treatment for another 24 hrs by MTT assay. Format: functional, cell-based. The note with it: time 48.0 hrs.
Assay [9] has as its system PC-12. Nature of the assay: Antioxidant activity against H2O2-induced oxidative damage in rat PC12 cells assessed as inhibition of intracellular ROS production at 2 uM preincubated for 24 hrs followed by H2O2 stimulation for 2 hrs by DCFH-DA staining based fluorescence microscopy. Particulars: time 26.0 hrs. Format: functional, cell-based.
Assay [10] has as its system PC-12. Nature of the assay: Cytoprotective activity against H2O2-induced oxidative damage in rat PC12 cells assessed as increase in cell viability pre-incubated for 24 hrs followed by H2O2 treatment for another 24 hrs by MTT assay. Format: functional, cell-based. Particulars: dose 0.25-2 µM, time 48.0 hrs.
The test system of assay [11] is PC-12. Nature of the assay: Antioxidant activity against H2O2-induced oxidative damage in rat PC12 cells assessed as inhibition of MDA production at 2 uM preincubated for 24 hrs followed by H2O2 stimulation for 6 hrs. The note with it: time 30.0 hrs. In kind it is functional, cell-based.

For the compound `CC(C)=CCC[C@@H](C)[C@@H]1CC[C@](C)(O)[C@@H]2CC=C(C)[C@H]2[C@@H]1O`, the Activity result (in [1]; with PC-12 [10]) was “Dose-Dependent Effect” throughout. Moreover, the outcome (in the assay on PC-12 [2]; in assay [3]; in the assay on Rattus norvegicus [4]; with PC-12 [5]; in assay [6]; in the assay on Rattus norvegicus [7]) was Active. Moreover, the result with PC-12 [9] and in the assay on PC-12 [11] was Active. The result in the assay with PC-12 [8] was inactive.
